Experimental data from ChEMBL document CHEMBL1201862, “PubChem BioAssay data set” (2004).
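How tested: cells in 96-well plates exposed to compound for 48 hours at five concentrations. Abbreviation: GI50, concentration required for 50% inhibition of growth.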 Activity calls are given as the source filed them. No stated cut-off is given here; in the data, active = GI50 up to about 1.1 µM and inactive = higher.

Key:
Experiment in all cases: NCI tumour cell line growth inhibition, 48 h
[1] = tested on: EKVX
[2] = tested on: NCI/ADR-RES
[3] = tested on: OVCAR-3
[4] = tested on: SF-295
[5] = tested on: NCI-H460
[6] = tested on: KM12
[7] = tested on: SW-620
[8] = tested on: RPMI-8226
[9] = tested on: SR
[10] = tested on: OVCAR-4
[11] = tested on: OVCAR-5
[12] = tested on: UACC-257
[13] = tested on: UO-31
[14] = tested on: U-251
[15] = tested on: UACC-62
[16] = tested on: SF-539
[17] = tested on: T47D
[18] = tested on: HCT-116
[19] = tested on: HL-60
[20] = tested on: NCI-H522
[21] = tested on: MCF7
[22] = tested on: A549
[23] = tested on: SK-MEL-28
[24] = tested on: A498
[25] = tested on: SK-MEL-2
[26] = tested on: HOP-92
[27] = tested on: SK-OV-3
[28] = tested on: DU-145
[29] = tested on: HCT-15
[30] = tested on: MDA-MB-231
[31] = tested on: 786-0
[32] = tested on: SNB-19
[33] = tested on: ACHN
[34] = tested on: CCRF-CEM
[35] = tested on: SNB-75
[36] = tested on: SK-MEL-5
[37] = tested on: OVCAR-8
[38] = tested on: NCI-H23
[39] = tested on: MDA-N
[40] = tested on: Malme-3M
[41] = tested on: HOP-62
[42] = tested on: TK-10
[43] = tested on: PC-3
[44] = tested on: MOLT-4
[45] = tested on: SF-268
[46] = tested on: IGROV-1
[47] = tested on: NCI-H226
[48] = tested on: K562
[49] = tested on: M14
[50] = tested on: MDA-MB-435
[51] = tested on: LOX IMVI
[52] = tested on: CAKI-1
[53] = tested on: BT-549
[54] = tested on: HCC 2998
[55] = tested on: Hs-578T
[56] = tested on: COLO 205
[57] = tested on: HT-29
[58] = tested on: SN12C
[59] = tested on: RXF 393

For `C=C1CC(Cn2ccc(=O)[nH]c2=O)(c2ccc(OC)cc2)OC1=O` (centres undefined), the GI50 [1] was 19.5 µM (inactive), the GI50 [2] was 16 µM (inactive) and the GI50 [3] was 19.3 µM (inactive). For the same molecule, the GI50 [4] was 34.7 µM (inactive), the GI50 [5] was 40.6 µM (inactive) and the GI50 [6] was 18.8 µM (inactive). The GI50 [7] was 3.7 µM (inactive), the GI50 [8] was 2.88 µM (inactive) and the GI50 [9] was 2.9 µM (inactive). For the same molecule, the GI50 [10] was 16.8 µM (inactive), the GI50 [11] was 17.5 µM (inactive) and the GI50 [12] was 14.8 µM (inactive). For the same molecule, the GI50 [13] was 17.2 µM (inactive), the GI50 [14] was 22.3 µM (inactive) and the GI50 [15] was 14.3 µM (inactive). For the same molecule, the GI50 [16] was 18.6 µM (inactive), the GI50 [17] was 16.3 µM (inactive) and the GI50 [18] was 6.15 µM (inactive). For the same molecule, the GI50 [19] was 2.35 µM (inactive), the GI50 [20] was 1.94 µM (inactive) and the GI50 [21] was 4.43 µM (inactive). The GI50 [22] was 24 µM (inactive), the GI50 [23] was 18 µM (inactive) and the GI50 [24] was 15.3 µM (inactive). For the same molecule, the GI50 [25] was 12.8 µM (inactive), the GI50 [26] was 2.34 µM (inactive) and the GI50 [27] was 28.8 µM (inactive). For the same molecule, the GI50 [28] was 17.4 µM (inactive), the GI50 [29] was 14.8 µM and the GI50 [30] was 16.6 µM (inactive). The GI50 [31] was 11.7 µM (inactive), the GI50 [32] was > 68.4 µM (inactive) and the GI50 [33] was 18.7 µM (inactive). The GI50 [34] was 2.88 µM (inactive), the GI50 [35] was > 10 µM (inactive) and the GI50 [36] was 13.9 µM (inactive). For the same molecule, the GI50 [37] was 20.1 µM (inactive), the GI50 [38] was 11.2 µM (inactive) and the GI50 [39] was 12.7 µM (inactive). The GI50 [40] was 10.1 µM (inactive), the GI50 [41] was 47.4 µM (inactive) and the GI50 [42] was 10 µM (inactive). The GI50 [43] was 16 µM (inactive), the GI50 [44] was 2.5 µM (inactive) and the GI50 [45] was 23.9 µM (inactive). The GI50 [46] was 15.7 µM (inactive), the GI50 [47] was 16.3 µM (inactive) and the GI50 [48] was 3.2 µM (inactive). The GI50 [49] was 7.21 µM (inactive), the GI50 [50] was 15.8 µM (inactive) and the GI50 [51] was 10.9 µM (inactive). The GI50 [52] was 6.34 µM (inactive), the GI50 [53] was 12.2 µM (inactive) and the GI50 [54] was 13 µM (inactive). For the same molecule, the GI50 [55] was 18.1 µM (inactive), the GI50 [56] was 4.14 µM (inactive) and the GI50 [57] was 13.2 µM (inactive). The GI50 [58] was 13.8 µM (inactive).
With `COc1ccc(OC)c(Cc2cnc3nc(N)nc(N)c3c2C)c1` [PIRITREXIM ISETHIONATE] the GI50 [1] was 19.5 µM (inactive), the GI50 [2] was 0.989 µM (active) and the GI50 [59] was 2.06 µM (inactive). The GI50 [3] was 0.533 µM (active), the GI50 [4] was 0.0592 µM (active) and the GI50 [5] was < 0.01 µM (active). For the same molecule, the GI50 [6] was 0.243 µM (active), the GI50 [7] was < 0.0231 µM (active) and the GI50 [8] was 0.173 µM (active). For the same molecule, the GI50 [9] was 0.03 µM (active), the GI50 [10] was 13.2 µM (inactive) and the GI50 [11] was 16.1 µM (inactive). For the same molecule, the GI50 [12] was 13.9 µM (inactive), the GI50 [13] was 0.24 µM (active) and the GI50 [15] was 0.853 µM (active). The GI50 [16] was 0.291 µM (active), the GI50 [17] was 11.1 µM (inactive) and the GI50 [18] was < 0.0112 µM (active). For the same molecule, the GI50 [19] was < 0.01 µM (active), the GI50 [20] was 0.204 µM (active) and the GI50 [21] was 0.634 µM (active). For the same molecule, the GI50 [22] was < 0.01 µM (active), the GI50 [23] was 1.25 µM (inactive) and the GI50 [25] was 0.986 µM (active). The GI50 [26] was 0.752 µM (active), the GI50 [27] was 11.3 µM (inactive) and the GI50 [28] was 0.284 µM (active). The GI50 [29] was 0.0149 µM, the GI50 [30] was 15.3 µM (inactive) and the GI50 [31] was < 0.0497 µM (active). The GI50 [32] was 0.236 µM (active), the GI50 [33] was < 0.01 µM (active) and the GI50 [34] was < 0.0198 µM (active). The GI50 [35] was 2.1 µM (inactive), the GI50 [36] was 0.0955 µM (active) and the GI50 [37] was < 0.0234 µM (active). The GI50 [38] was 0.0617 µM (active), the GI50 [39] was < 0.018 µM (active) and the GI50 [41] was 0.188 µM (active). For the same molecule, the GI50 [42] was 13.5 µM (inactive), the GI50 [43] was 0.0353 µM (active) and the GI50 [44] was < 0.0171 µM (active). For the same molecule, the GI50 [45] was 0.0957 µM (active), the GI50 [46] was < 0.0111 µM (active) and the GI50 [47] was 2.19 µM (inactive). The GI50 [48] was < 0.01 µM (active), the GI50 [49] was < 0.0201 µM (active) and the GI50 [50] was < 0.0435 µM (active). For the same molecule, the GI50 [51] was < 0.0142 µM (active), the GI50 [52] was 0.0456 µM (active) and the GI50 [53] was 13.4 µM (inactive). For the same molecule, the GI50 [54] was 0.258 µM (active), the GI50 [55] was 15.1 µM (inactive) and the GI50 [56] was 12.9 µM (inactive). For the same molecule, the GI50 [57] was < 0.0168 µM (active) and the GI50 [58] was 0.352 µM (active).
